Data as given in ChEMBL document CHEMBL1201862, “PubChem BioAssay data set” (2004).
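Cells were grown in 96-well plates and exposed to each compound for 48 hours at five concentrations; endpoints were interpolated linearly between bracketing concentrations, or set to the highest concentration if not reached. Here, GI50 denotes the concentration required for 50% inhibition of growth.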 The source made the active and inactive calls. Cut-off read from the data, not from the text of the source: active = GI50 up to about 1.1 µM and inactive = higher.

What was measured:
Experiment in all cases: NCI-60 cell line screen, 48 h
786-0 = test system: 786-0
A498 = test system: A498
A549 = test system: A549
ACHN = test system: ACHN
BT-549 = test system: BT-549
CAKI-1 = test system: CAKI-1
CCRF-CEM = test system: CCRF-CEM
COLO 205 = test system: COLO 205
DU-145 = test system: DU-145
EKVX = test system: EKVX
HCC 2998 = test system: HCC 2998
HCT-116 = test system: HCT-116
HCT-15 = test system: HCT-15
HL-60 = test system: HL-60
HOP-62 = test system: HOP-62
HOP-92 = test system: HOP-92
HT-29 = test system: HT-29
Hs-578T = test system: Hs-578T
IGROV-1 = test system: IGROV-1
K562 = test system: K562
KM12 = test system: KM12
LOX IMVI = test system: LOX IMVI
M14 = test system: M14
MCF7 = test system: MCF7
MDA-MB-231 = test system: MDA-MB-231
MDA-MB-435 = test system: MDA-MB-435
MDA-N = test system: MDA-N
MOLT-4 = test system: MOLT-4
NCI-H226 = test system: NCI-H226
NCI-H23 = test system: NCI-H23
NCI-H522 = test system: NCI-H522
NCI/ADR-RES = test system: NCI/ADR-RES
OVCAR-3 = test system: OVCAR-3
OVCAR-5 = test system: OVCAR-5
OVCAR-8 = test system: OVCAR-8
PC-3 = test system: PC-3
RPMI-8226 = test system: RPMI-8226
RXF 393 = test system: RXF 393
SF-268 = test system: SF-268
SF-295 = test system: SF-295
SF-539 = test system: SF-539
SK-MEL-28 = test system: SK-MEL-28
SK-MEL-2 = test system: SK-MEL-2
SK-MEL-5 = test system: SK-MEL-5
SK-OV-3 = test system: SK-OV-3
SN12C = test system: SN12C
SNB-75 = test system: SNB-75
SR = test system: SR
SW-620 = test system: SW-620
T47D = test system: T47D
TK-10 = test system: TK-10
U-251 = test system: U-251
UACC-257 = test system: UACC-257
UACC-62 = test system: UACC-62
Malme-3M = test system: Malme-3M
NCI-H460 = test system: NCI-H460
OVCAR-4 = test system: OVCAR-4
SNB-19 = test system: SNB-19
UO-31 = test system: UO-31

Measured: GI50

c1ccc(CN2C3C4N(Cc5ccccc5)C2C2N(Cc5ccccc5)C(C(N2Cc2ccccc2)N4Cc2ccccc2)N3Cc2ccccc2)cc1
> 100 µM: HCT-15
inactive: 786-0 > 100 µM | A498 > 100 µM | A549 > 100 µM | ACHN > 100 µM | BT-549 > 100 µM | CAKI-1 > 100 µM | CCRF-CEM 40.1 µM | COLO 205 > 100 µM | DU-145 > 100 µM | EKVX > 100 µM | HCC 2998 > 100 µM | HCT-116 > 100 µM | HL-60 > 100 µM | HOP-62 > 100 µM | HOP-92 > 100 µM | HT-29 > 100 µM | Hs-578T > 100 µM | IGROV-1 > 100 µM | K562 > 100 µM | KM12 > 100 µM | LOX IMVI > 100 µM | M14 > 100 µM | MCF7 > 100 µM | MDA-MB-231 > 100 µM | MDA-MB-435 > 100 µM | MDA-N > 100 µM | MOLT-4 > 100 µM | NCI-H226 > 100 µM | NCI-H23 > 100 µM | NCI-H522 > 100 µM | NCI/ADR-RES > 100 µM | OVCAR-3 > 100 µM | OVCAR-5 > 100 µM | OVCAR-8 > 100 µM | PC-3 > 100 µM | RPMI-8226 > 100 µM | RXF 393 > 100 µM | SF-268 > 100 µM | SF-295 > 100 µM | SF-539 > 100 µM | SK-MEL-28 > 100 µM | SK-MEL-2 > 100 µM | SK-MEL-5 > 100 µM | SK-OV-3 > 100 µM | SN12C > 100 µM | SNB-75 > 100 µM | SR > 100 µM | SW-620 > 100 µM | T47D > 100 µM | TK-10 > 100 µM | U-251 > 100 µM | UACC-257 > 100 µM | UACC-62 > 100 µM

N#CS/C(C(Cl)=C(Cl)Cl)=C(/Cl)[N+](=O)[O-]
2.32 µM: HCT-15
inactive: 786-0 1.68 µM | A498 17.1 µM | A549 21 µM | ACHN 1.64 µM | BT-549 2.24 µM | COLO 205 1.49 µM | DU-145 13.8 µM | EKVX 4.46 µM | HCC 2998 18.6 µM | HCT-116 1.5 µM | HOP-62 15.4 µM | HOP-92 2.37 µM | HT-29 1.9 µM | Hs-578T 6.1 µM | IGROV-1 2.32 µM | KM12 9.64 µM | M14 1.31 µM | MCF7 3.9 µM | MDA-MB-231 3.1 µM | MDA-MB-435 1.66 µM | MDA-N 1.8 µM | Malme-3M 1.58 µM | NCI-H226 7.66 µM | NCI-H23 2.7 µM | NCI-H460 13.7 µM | NCI/ADR-RES 3.88 µM | OVCAR-3 1.53 µM | OVCAR-4 1.95 µM | OVCAR-5 1.7 µM | OVCAR-8 1.75 µM | PC-3 5.33 µM | RXF 393 1.4 µM | SF-268 3.17 µM | SF-295 22.2 µM | SF-539 6.44 µM | SK-MEL-28 1.76 µM | SK-MEL-2 4.52 µM | SK-MEL-5 2.53 µM | SK-OV-3 17 µM | SN12C 2.21 µM | SNB-19 20.2 µM | SNB-75 17.4 µM | SW-620 1.78 µM | T47D 1.99 µM | TK-10 2.23 µM | U-251 14.1 µM | UACC-257 1.75 µM | UACC-62 4.26 µM | UO-31 1.63 µM
active: CAKI-1 0.977 µM | CCRF-CEM 0.284 µM | HL-60 0.219 µM | K562 0.603 µM | LOX IMVI 0.904 µM | MOLT-4 0.6 µM | NCI-H522 1.04 µM | RPMI-8226 0.9 µM | SR 0.778 µM

COc1cc(OC)c2c(O)c3c(cc2c1)CC(C)(C)CC3=O
> 100 µM: HCT-15
inactive: 786-0 > 67.3 µM | A498 > 100 µM | A549 > 100 µM | ACHN > 100 µM | BT-549 > 100 µM | CAKI-1 > 100 µM | CCRF-CEM > 63.1 µM | COLO 205 > 100 µM | DU-145 > 100 µM | EKVX > 100 µM | HCC 2998 > 100 µM | HCT-116 > 100 µM | HL-60 > 32.7 µM | HOP-62 97.3 µM | HOP-92 > 100 µM | HT-29 5.96 µM | Hs-578T 16.3 µM | IGROV-1 > 100 µM | KM12 > 92.3 µM | LOX IMVI > 100 µM | M14 > 100 µM | MCF7 > 100 µM | MDA-MB-231 > 100 µM | MDA-MB-435 19.4 µM | MDA-N > 64 µM | MOLT-4 > 76.6 µM | Malme-3M 48.5 µM | NCI-H226 > 100 µM | NCI-H23 > 100 µM | NCI-H460 > 100 µM | NCI-H522 > 64.3 µM | NCI/ADR-RES > 100 µM | OVCAR-3 > 74.1 µM | OVCAR-4 32.1 µM | OVCAR-5 > 100 µM | OVCAR-8 > 100 µM | PC-3 > 100 µM | RPMI-8226 > 100 µM | RXF 393 > 100 µM | SF-268 > 100 µM | SF-295 > 72.6 µM | SF-539 > 100 µM | SK-MEL-28 60.7 µM | SK-MEL-2 > 100 µM | SK-MEL-5 > 100 µM | SK-OV-3 > 100 µM | SN12C > 100 µM | SNB-19 > 100 µM | SNB-75 49.7 µM | SR > 26.7 µM | SW-620 59 µM | T47D > 100 µM | TK-10 > 100 µM | U-251 56.5 µM | UACC-257 > 100 µM | UACC-62 90.6 µM | UO-31 > 100 µM

CC(=O)OCC1OC(n2c3c(cc(C#N)c2=O)CCCCCC3)C(OC(C)=O)C(OC(C)=O)C1OC(C)=O (stereo not drawn)
> 100 µM: HCT-15
inactive: 786-0 > 100 µM | A498 > 100 µM | A549 > 100 µM | ACHN > 100 µM | BT-549 > 100 µM | CAKI-1 > 100 µM | CCRF-CEM > 100 µM | COLO 205 > 100 µM | DU-145 > 100 µM | HCC 2998 > 100 µM | HCT-116 > 100 µM | HL-60 > 100 µM | HOP-62 > 100 µM | HOP-92 > 100 µM | HT-29 > 100 µM | Hs-578T > 100 µM | IGROV-1 > 100 µM | K562 > 100 µM | KM12 > 100 µM | LOX IMVI > 100 µM | M14 > 100 µM | MCF7 > 100 µM | MDA-MB-231 > 100 µM | MDA-MB-435 > 100 µM | MDA-N > 100 µM | MOLT-4 > 100 µM | Malme-3M > 100 µM | NCI-H226 > 100 µM | NCI-H23 > 100 µM | NCI-H460 > 100 µM | NCI-H522 > 100 µM | NCI/ADR-RES > 100 µM | OVCAR-3 > 100 µM | OVCAR-4 > 100 µM | OVCAR-5 > 100 µM | OVCAR-8 > 100 µM | PC-3 > 100 µM | RPMI-8226 > 100 µM | RXF 393 > 100 µM | SF-268 > 100 µM | SF-295 > 100 µM | SF-539 > 100 µM | SK-MEL-28 > 100 µM | SK-MEL-2 > 100 µM | SK-MEL-5 > 100 µM | SN12C > 100 µM | SNB-19 > 100 µM | SNB-75 18.4 µM | SR 96.6 µM | T47D 22.7 µM | TK-10 > 100 µM | U-251 > 100 µM | UACC-257 > 100 µM | UACC-62 > 100 µM | UO-31 > 100 µM

CCN(CC)CCn1nc(N)c2nc3cc(Cl)ccc3nc21
inactive: 786-0 62.8 µM | A498 > 100 µM | A549 49.8 µM | ACHN 37.5 µM | BT-549 > 100 µM | CAKI-1 51.4 µM | CCRF-CEM > 10 µM | COLO 205 35.7 µM | DU-145 > 100 µM | EKVX 80 µM | HCC 2998 > 100 µM | HCT-116 48.4 µM | HL-60 61.4 µM | HOP-62 > 100 µM | HOP-92 > 100 µM | HT-29 35.3 µM | Hs-578T > 100 µM | IGROV-1 16.3 µM | K562 40.7 µM | KM12 94.8 µM | LOX IMVI 51.2 µM | M14 37.8 µM | MCF7 36.1 µM | MDA-MB-231 > 100 µM | MDA-MB-435 97.9 µM | MDA-N 86.5 µM | MOLT-4 33.4 µM | Malme-3M 61.7 µM | NCI-H226 70.1 µM | NCI-H23 91.6 µM | NCI-H460 34.3 µM | NCI-H522 31.8 µM | NCI/ADR-RES 35.3 µM | OVCAR-4 > 100 µM | OVCAR-5 89.1 µM | OVCAR-8 42.4 µM | PC-3 58.1 µM | RPMI-8226 89.9 µM | RXF 393 88.9 µM | SF-268 75.5 µM | SF-295 54.2 µM | SK-MEL-28 76.2 µM | SK-MEL-2 64.3 µM | SK-MEL-5 26.1 µM | SK-OV-3 > 100 µM | SN12C 45.1 µM | SNB-19 53.5 µM | SR 82.8 µM | SW-620 63 µM | T47D > 100 µM | TK-10 > 100 µM | U-251 > 100 µM | UACC-257 37.5 µM | UACC-62 45.9 µM | UO-31 23.8 µM
> 100 µM: HCT-15
